Here are results for 20 compounds from patent US9238039B2, “Pyrazolo[1,5-A]pyrimidines for antiviral treatment” (Gilead Sciences, Inc., priority 2010, dated 2016).

One may read the inhibition as the percentage by which the read-out fell short of the control. In general, EC50 refers to the concentration needed to bring the measured effect to its halfway point.

In the assay the test system is RSV strain A2. As to the kind of experiment: RSV antiviral cytoprotection assay in Hep2 cells (96-well and 384-well format, Cell TiterGlo read-out). As to conditions: for inhibition at 0.5 µM: HEp-2, 0.5 uM, RSV-induced cytopathic effect in Hep2 cells, calculated from fitted dose response curve, normalized to 0% and 100%; for EC50: Hep2 cells, class symbols. In kind it is cell-based, Respiratory Syncytial Virus (RSV).

Setting [1] is: human respiratory syncytial virus.
Where [2] appears, read: human respiratory syncytial virus, HEp-2, RSV-induced cytopathic effects.

Regarding `Cc1ccc(NS(C)(=O)=O)c(C(=O)N2CCC(C(F)(F)F)CC2c2cc3[nH]c(C)c(C)c(=O)n3n2)c1` (stereo not shown) [Compound 251], the inhibition at 0.5 µM under setting [1] was 73%. Also, the concentration giving a half-maximal response (EC50) under setting [2] fell in the range of 101 to 1000 nM.
The like results for `Cc1ccc(NS(C)(=O)=O)c(C(=O)N2CCCC[C@H]2c2cc3nc(C)cc(N(C)C)n3n2)c1` [Compound 39] were, in that order, 100% and 0.1 to 100 nM.
As for `CCc1ccc(NS(C)(=O)=O)c(C(=O)N2CCCC[C@H]2c2cc3nc(C4CC4)cc(C)n3n2)c1` [Compound 115], under setting [1], the inhibition at 0.5 µM is 100%. The EC50 under setting [2] fell in the range of 0.1 to 100 nM.
`Cc1ccc(NS(C)(=O)=O)c(C(=O)N2CCCC(C)C2c2cc3[nH]c(C)c(C)c(=O)n3n2)c1` (stereo not shown) [Compound 30]: for the setting “RSV-induced cytopathic effects”, the EC50 lay in the range of 101 to 1000 nM. In addition, under setting [1], the inhibition at 0.5 µM was 99%.
As to `Cc1cn2nc([C@@H]3CCCCN3C(=O)c3cc(C)n(C(F)F)n3)cc2nc1N1CC[C@H](N)C1` [Compound 355], the inhibition at 0.5 µM under setting [1] is 96%. In addition, under setting [2], the EC50 fell in the range of 0.1 to 100 nM.
With `Cc1cn2nc([C@@H]3CCCCN3C(=O)c3ncc(F)cc3F)cc2nc1N1CC[C@H](N)C1` [Compound 310], the inhibition at 0.5 µM under setting [1] was 100%. Further, the EC50 under setting [2] lay within 0.1 to 100 nM.
The like results for `Cc1cn2nc([C@@H]3CCCCN3C(=O)c3ccccc3-c3cccnc3)cc2nc1N1CC[C@H](N)C1` [Compound 409] were, in that order, 99% and 0.1 to 100 nM.
For `Cc1cn2nc([C@@H]3CCCCN3C(=O)c3cnccn3)cc2nc1N1CC[C@H](N)C1` [Compound 260] the same measures were 99% and 0.1 to 100 nM.
The like results for `Cc1cccc(C(=O)N2CCCC[C@H]2c2cc3nc(N4CC[C@H](C#N)C4)c(C)cn3n2)c1` [Compound 152] were, in that order, 100% and 0.1 to 100 nM.
For the compound `CC#Cc1cc(N2CCOCC2)n2nc([C@@H]3CCCCN3C(=O)c3cc(Cl)ccc3NS(C)(=O)=O)cc2n1` [Compound 110], under setting [1], the inhibition at 0.5 µM was 100%. Besides, under setting [2], the EC50 was in the range of 0.1 to 100 nM.
For `CS(=O)(=O)Nc1ccc(Cl)cc1C(=O)N1CCCC[C@H]1c1cc2nc(N3CCC3)cc(N3CCN[C@@H](C(F)F)C3)n2n1` [Compound 253] the same measures were 88% and 0.1 to 100 nM.
The like results for `Cc1cc(N(C)C)nc2cc([C@@H]3CCCCN3C(=O)c3cc(Cl)ccc3NS(C)(=O)=O)nn12` [Compound 41] were, in that order, 95% and 0.1 to 100 nM.
For `Cc1cn2nc([C@@H]3CCCCN3C(=O)c3cc(Cl)ccc3NS(C)(=O)=O)cc2nc1N1CCC(c2ccccn2)C1` (stereo partly shown) [Compound 209] the same measures were 88% and 101 to 1000 nM.
For the compound `Cc1cc(C(=O)N2CCCC[C@H]2c2cc3nc(N4CC[C@H](N)C4)c(C)cn3n2)on1` [Compound 266], the inhibition at 0.5 µM under setting [1] was 100%. Also, the concentration giving a half-maximal response (EC50) under setting [2] was 0.1 to 100 nM.
On to `Cc1cc(C(=O)N2CCCC[C@H]2c2cc3nc(N4CC[C@H](N)C4)c(C)cn3n2)c(Cl)nn1` [Compound 341], for which the inhibition at 0.5 µM under setting [1] was 75%. Also, the EC50 under setting [2] fell in the range of 0.1 to 100 nM.
For `Cc1cn2nc([C@@H]3CCCCN3C(=O)c3ccc4c(c3)OCCO4)cc2nc1N1CC[C@H](N)C1` [Compound 364] the same measures were 99% and 0.1 to 100 nM.
With `CCc1ccc(C(=O)N2CCCC[C@H]2c2cc3nc(N4CC[C@H](N)C4)c(C)cn3n2)s1` [Compound 304], the inhibition at 0.5 µM under setting [1] was 100%. In addition, the EC50 under setting [2] was 0.1 to 100 nM.
On to `Cc1cn2nc([C@@H]3CCCCN3C(=O)c3cc(C(C)C)nn3C)cc2nc1N1CC[C@H](N)C1` [Compound 328], for which the inhibition at 0.5 µM under setting [1] is 99%. Moreover, under setting [2], the half-maximal effective concentration (EC50) lay in the range of 0.1 to 100 nM.
The like results for `Cc1cn2nc([C@@H]3CCCCN3C(=O)c3cc(Cl)ccc3NS(C)(=O)=O)cc2nc1N1CCC(O)CC1` [Compound 218] were, in that order, 72% and 101 to 1000 nM.
For the compound `CC1(O)CN(c2cc(N3CCC3)nc3cc([C@@H]4CCCCN4C(=O)c4cc(Cl)ccc4NS(C)(=O)=O)nn23)C1` [Compound 105], the inhibition at 0.5 µM under setting [1] is 100%. Also, the concentration giving a half-maximal response (EC50) under setting [2] lay in the range of 0.1 to 100 nM.
